Measured values taken from US8653027B2, “Method of treatment of type-1 diabetes with humanin analogues” (The Regents of the University of California, priority 2007, dated 2014).
“Also recorded” adds a separate entry of the source. Where two headings read alike, the source gives them in different places.

How the values were obtained:
IGFBP-3 = IGFBP-3 (Homo sapiens, UniProt P17936); test: IGFBP-3 binding
normal (wild-type) MEFs = test: Apoptosis ELISA in normal (wild-type) mouse embryonic fibroblasts; type: cell-based; details: 100 nM peptide, 24 hours
Experimental: (§1) Mouse embryonic fibroblasts (MEFs) derived from normal (wild-type) and IGFBP3 deficient mice were used to test the effects of humanin and its analogues on survival. Apoptosis was measured after 24 hours with 100 nM of each peptide by ELISA. […] The increased potency seems to result from the lack of IGFBP-3 binding, because there is no additional advantage when IGFBP-3 is not present. Thus, F6A-HNG is distinct from previously described humanin derivatives.

IGFBP-3 deficient MEFs = test: Apoptosis ELISA in IGFBP-3 deficient mouse embryonic fibroblasts; type: cell-based; details: 100 nM peptide, 24 hours
Experimental: as §1

NONcNZO10/LtJ mice = test: IP glucose tolerance test in NONcNZO10/LtJ mice (obesity-induced type 2 diabetes model); type: in vivo, mouse; details: 25 μg IP twice a day for 14 days
Experimental: NONcNZO10/LtJ mice are a model for obesity-induced type 2 diabetes. NONcNZO10/LtJ mice were injected IP with 25 μg F6A-HNG twice a day for 14 days. Mice were subjected to 6 hour fast followed by an IP GTT on D15. Baseline glucose measurement was taken and the mice were injected IP with 0.5 mg/g glucose. Glucose was sampled at 0 and 90, 120 min.

NIT cells = test: Survival and STAT-3/ERK activation in NIT cells, potency compared to humanin; type: cell-based
NIT-1 insulinoma cells = test: Serum starvation-induced apoptosis of NIT-1 cells, histone-associated DNA ELISA; type: cell-based, Mouse; details: NIT-1 cells serum starved 24 hours, humanin 1 to 10000 nM
Experimental: Secondary to the pro-survival effect of humanin observed in neuronal cells, we hypothesized that humanin could be a survival factor for neuroendocrine beta cells. Mouse NIT-1 insulinoma cells were serum starved for 24 hours as control, and compared to cultures co-incubated with increasing doses of humanin ranging from 1 to 10000 nM.
Conditions were as follows: NIT-1 cells were purchased from ATCC and maintained in F-12 Ham's medium (F12-K) supplemented with 10% FBS (fetal bovine serum), 10% L-glutamine, Penicillin (100 U/ml) and Streptomycin (100 μg/ml), in 25 cm^2 tissue culture flasks (Greiner, Frickenhausen, Germany). NIT-1 cells were maintained at 37 C in a 5% CO2/95% air mixture and were passaged twice weekly by trypsination (Invitrogen life technologies, Karlsruhe, Germany). For the experiment, NIT-1 cells were seeded in 96-well plates at a density of 0.128×10^5 cells per well. After about 24 hours, medium was changed to FCS-free medium.
Apoptosis was quantified by a specific histone-associated DNA ELISA.

NIT-1 cells = test: Caspase 3/7 fluorometric assay (ApoONE) of cytokine-induced apoptosis in NIT-1 cells; type: cell-based, Mouse
Experimental: Apoptosis is the main form of pancreatic beta cell death in animal models of type 1 diabetes mellitus. […] In this study, we used a caspase 3/7 specific fluorometric assay (ApoONE, Promega) to measure the degree of apoptosis induction by cytokines in NIT-1 cells.
Cells were cultured as described above. For the experiment, NIT-1 cells were seeded in 96-well plates at a density of 0.128×10^5 cells per well. After about 24 hours, medium was changed to FCS-free medium and the cells were exposed to TNF-α (5 ng/mL) or were kept untreated as controls. As expected, TNF-α induced apoptosis in NIT-1 cells at 48 hours.
TNF-α increased apoptosis approximately 40% compared to serum-deprived cells.

ERK1/2 = ERK1/2 phosphorylation in NIT-1 cells by immunoblotting; type: cell-based, Mouse; details: 100 nM HN, serum free media
Experimental: (§2) To investigate the mechanism of Humanin-induced beta cell survival, we treated NIT-1 cells with 100 nM HN in serum free media. Cell lysates were harvested and phosphorylated ERK1/2 and STAT3 were assessed by immunoblotting.
(§3) Phosphorylation of ERK (activation) occurred 15 minutes after adding HN. Phosphorylation of STAT3 (activation) was a later event, 4 hours after addition of HN (FIG. 2).

STAT3 = STAT3 phosphorylation in NIT-1 cells by immunoblotting; type: cell-based, Mouse; details: 100 nM HN, serum free media
Experimental: as §2, §3

NOD mice [1] = type: in vivo; details: for glucose tolerance (response to glucose challenge): NOD mice, 0.7 mg/kg/d IP for 6 weeks, fasted overnight, vs saline
Experimental: As proof of principle, we examined whether a 6-week course of daily IP injected humanin (0.7 mg/kg/d) to euglycemic 9-week-old NOD mice (Taconic) could improve glucose tolerance as compared to saline-injected control mice (n=12/group). […] At the conclusion of the treatment, mice were fasted overnight and divided into groups that were subjected to IP insulin and glucose tolerance testing (n=6/group). […] We additionally harvested serum, pancreata, and various other organs from these mice for histological studies and analysis of serum humanin, IGFBP-3, and other IGF-related peptides.

NOD mice [2] = test: Insulitis scoring of pancreatic sections from NOD mice; type: in vivo, mouse; details: humanin-treated NOD mice vs vehicle-treated control
Excerpt: To test whether administration of humanin regulates the extent of lymphocyte infiltration into pancreatic islets, fixed and embedded pancreatic tissues were examined. Pancreata from humanin-treated NOD mice were formalin fixed, stained with hematoxylin/eosin, and assessed in a blinded fashion to determine the degree of lymphocyte infiltration. Results were compared to tissues from saline-injected control mice. Three or four randomly selected and nonadjacent sections from each pancreas were scored independently by two blind observers and evaluated for mononuclear cell infiltration. Severity of infiltration was classified based on the degree of lymphocytic infiltration as follows: G0—normal (no infiltration); G1—peri-insulitis (mononuclear cells surrounding islets and ducts but no infiltration of the islet architecture); G2—moderate insulitis (mononuclear cells infiltrating less than 50% of the islet architecture); and G3—severe insulitis (more than 50% of the islet tissue infiltrated by lymphocytes, accompanied by a reduction in insulin staining). See Pastorale et al. (2002) Exp Biol Med (Maywood) 227:282-89.

NOD mice [3] = test: Onset of diabetes in NOD mice over 20-week treatment; type: in vivo, mouse; details: female NOD mice, 0.7 mg/kg/d IP daily from 5 weeks of age, vs saline, 0.7 mg/kg/day
Experimental: Four-week-old female NOD mice were treated with humanin. Before treatment, mice were tested two to three times per week for nonfasting blood glucose levels. Mice with blood glucose levels higher than 300 mg/dL on three consecutive measurements were considered diabetic. Beginning at 5 weeks of age, two groups of NOD mice (n=25 each) were administered (0.7 mg/kg/d) synthetic humanin by IP injection daily (Bachem). NOD mice injected with the same volume of saline served as negative controls.

Chain of IGFBP-3 (P17936 28-291, species assumed): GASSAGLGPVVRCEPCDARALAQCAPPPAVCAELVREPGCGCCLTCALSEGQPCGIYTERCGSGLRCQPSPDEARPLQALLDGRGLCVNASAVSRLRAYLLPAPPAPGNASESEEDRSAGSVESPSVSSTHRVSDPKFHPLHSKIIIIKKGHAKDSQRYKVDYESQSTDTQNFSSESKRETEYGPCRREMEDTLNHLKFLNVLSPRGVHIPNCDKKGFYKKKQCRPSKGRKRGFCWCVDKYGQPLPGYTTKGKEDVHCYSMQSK

For “F6A-HNG: humanin analogue, SEQ ID NO:16 MAPRGASCLLLLTGEIDLPVKRRA (synthetic humanin (HN) analogue F6A-HNG)”, which IGFBP-3 binding (IGFBP-3) is on record?
The IGFBP-3 binding was “does not bind IGFBP-3; also recorded: devoid of IGFBP-3 binding activity”.

What about the “potency on survival (apoptosis) in normal MEFs” value (normal (wild-type) MEFs) of the same substance?
The value was “more potent”.

What about the “potency on survival (apoptosis) in IGFBP-3 deficient MEFs” value (IGFBP-3 deficient MEFs) of the same substance?
The value was “equal potency”.

What about the “glucose levels at 90 and 120 min” value (NONcNZO10/LtJ mice; IP GTT on D15) of the same substance?
The value was “significantly lower”.

What about the glucose tolerance (NONcNZO10/LtJ mice; IP GTT on D15 after 6 hour fast, 0.5 mg/g glucose) of the same substance?
The glucose tolerance was “significantly better glucose tolerance”.

What about the “potency in promoting survival and activating STAT-3 and ERK, compared to humanin” value (shortened to “potency … compared to humanin”) (NIT cells) of the same substance?
The value was “even greater potency”.

For “F6AK21A-HNG: humanin analogue, SEQ ID NO:17 MAPRGASCLLLLTGEIDLPVARRA (synthetic humanin (HN) analogue F6AK21A-HNG)”, which “potency … compared to humanin” value (NIT cells) is on record?
Its value is “even greater potency”.

For “HNG: humanin analogue, SEQ ID NO:2 MAPRGFSCLLLLTGEIDLPVKRRA (synthetic humanin (HN) analogue S14G-HN (HNG))”, which “potency on survival (apoptosis) in IGFBP-3 deficient MEFs” value (IGFBP-3 deficient MEFs) is on record?
The value was “equal potency”.

With “Humanin: 24 amino acid peptide, SEQ ID NO:1 MAPRGFSCLLLLTSEIDLPVKRRA” as the substance, how does the “protection from serum-starvation induced apoptosis” value (NIT-1 insulinoma cells) read?
The value was “potently protected beta cells from serum-starvation induced apoptosis in a dose dependent manner”.

And the “protection from serum-starvation induced apoptosis” value (NIT-1 insulinoma cells; listed as humanin)?
The value was “reduced the level of apoptosis”.

And the “protection from serum starvation induced apoptosis (caspase 3/7 assay)” value (NIT-1 cells; FCS-free medium, humanin 10 to 1000 nM)?
Its value is “protects beta cells from cytokine-induced apoptosis and serum starvation induced apoptosis in a dose-dependent manner”.

And the “protection from TNF-α induced apoptosis” value (NIT-1 cells; TNF-α 5 ng/mL, 48 hours, humanin 10 to 1000 nM, caspase 3/7 assay)?
Its value is “protected beta cells from TNF-α induced apoptosis in a dose dependent manner”.

And the ERK activation (ERK1/2)?
Its ERK activation is “activates ERK”.

And the “time of phosphorylation of ERK (activation) after adding HN” value (ERK1/2)?
The value was 15 min.

And the STAT3 activation (STAT3)?
The STAT3 activation was “activates ERK and STAT3”.

And the “time of phosphorylation of STAT3 (activation) after addition of HN” value (STAT3)?
Its value is 4 h.

What about the “glucose tolerance (response to glucose challenge)” value (NOD mice [1]) of the same substance?
Its value is “improves glucose tolerance”.

What about the “glucose tolerance (response to glucose challenge)” value (NOD mice [1]; listed as humanin) of the same substance?
The value was “non-diabetic response to glucose challenge”.

What about the “tolerability of daily IP injections” value (NOD mice [1]; mouse, in vivo, ip, 0.7 mg/kg/day) of the same substance?
The value was “tolerated well”.

What about the “total number of islets infiltrated by lymphocytes” value (NOD mice [2]) of the same substance?
The value was “significantly decreased”.

And the “severity of lymphocyte infiltration (insulitis)” value (NOD mice [2]; grades G0-G3)?
Its value is “significantly decreased; also recorded: decreased insulitis severity”.

And the onset of diabetes (NOD mice [3])?
Its onset of diabetes is “delays onset of diabetes”.

What about the onset of diabetes (NOD mice [3]; listed as humanin) of the same substance?
The onset of diabetes was “significantly delayed the onset of diabetes”.

What about the IGFBP-3 binding (IGFBP-3) of the same substance?
Its IGFBP-3 binding is “binds IGFBP-3”.

TNF-α [reference compound] was tested. Which “increase of apoptosis compared to serum-deprived cells” value (NIT-1 cells; TNF-α 5 ng/mL, 48 hours) did it give?
The value was “approximately 40%”.

For “Z-HN: humanin analogue, SEQ ID NO:18 MAKRGLNCLPHQVSEIDLSVQKRI (synthetic humanin (HN) analogue Z-HN)”, which “potency … compared to humanin” value (NIT cells) is on record?
The value was “two-fold greater potency than humanin”.
